27 molecules from patent US9403756B2, “N-phenyl anthranilic acid derivatives and uses thereof” (Ramot at Tel-Aviv University Ltd., priority 2007, dated 2016) can be followed below.

The target in one assay is T1, KCNQ2 mutant R207W (Homo sapiens, UniProt O43526, R207W).
T1 construct: expressed in transfected cells; host or cells: CHO cells
Type of assay: cell-based. An excerpt:
FIGS. 10A-D present the potentiating effect of NH29, an exemplary channel opener compound according to embodiments of the present invention, on wild type KCNQ2 (FIGS. 10A and 10B) and R207W mutant (FIGS. 10C and 10D) channels, as expressed in activation curve measurements, showing that NH29 left-shifts the activation curve (ΔV50) by −15.5 mV and −5.5 mV in the case of the wild-type and the mutant, respectively, and showing that NH29 enhances the current of wild-type and the mutant by about 3.4-fold (at −40 mV) and 1.5-fold (at −20 mV), respectively.
FIGS. 11A-F present the potentiating effect of NH29, an exemplary channel opener compound according to embodiments of the present invention, and Retigabine, on KCNQ2 mutants R207W and W236L mutant. Shown are representative traces recorded from CHO cell transfected with the KCNQ2 mutant R207W 0, 1 and 4-4.5 minutes after external application of 25 μM of NH29 and wherein the membrane potential was stepped from −90 mV holding potential to −20 mV for 1.5 seconds pulse duration (FIG. 11A), or 0, 1 and 4 minutes after external application of 25 μM of Retigabine wherein the membrane potential was stepped from −90 mV holding potential to −40 mV for 1.5 seconds pulse duration (FIG. 11B). FIGS. 11C and 11D show representative traces recorded from CHO cells transfected with the KCNQ2 mutant W236L 0, 1 and 6 minutes after external application of 25 μM of NH29 (FIG. 11C) or 0 and 5 minutes after external application of 10 μM of Retigabine (FIG. 11D) and wherein the membrane potential was stepped from −90 mV holding potential to −40 mV for 1.5 seconds pulse duration. FIG. 11E presents superimposed traces, showing the effects of Retigabine (RTG) and NH29 on the channel activity of KCNQ2 mutant W236L as measured at −40 mV; and FIG. 11F presents a bar diagram comparing the potentiating effect of NH29 and Retigabine on native KCNQ2 and KCNQ2 mutants, wherein the opener effect is expressed as percent of the control current in the absence of the opener.
(§1) Voltage-clamp recordings in CHO cells were performed, using the whole-cell configuration of the patch-clamp technique. Signals were amplified using an Axopatch 200B patch-clamp amplifier (Molecular Devices, Sunnyvale, Calif.), sampled at 2 kHz and filtered at 800 Hz via a 4-pole Bessel low pass filter. Data were acquired using pClamp 9.2 software (Molecular Devices) and an IBM compatible Pentium IV computer in conjunction with a DigiData 1322A interface (Molecular Devices). The patch pipettes were pulled from borosilicate glass (Warner Instrument Corp, USA) with a resistance of 2-5 MΩ. For K^+ current recordings in CHO cells, the intracellular pipette solution contained (in mM): 130 KCl, 1 MgCl2, 5 K2ATP, 5 EGTA, 10 HEPES, adjusted with KOH to pH 7.4 (290 mOsm). The extracellular solution contained (in mM): 140 NaCl, 4 KCl, 1.8 CaCl2, 1.2 MgCl2, 11 glucose, 5.5 HEPES, adjusted with NaOH to pH 7.4 (310 mOsm). Series resistances (3-13 MΩ) were compensated (75-90%) and periodically monitored.

A further assay deals with T2, Kv7.2/3 channels (Homo sapiens, UniProt O43525+O43526).
T2 construct: expressed in transfected cells; host or cells: CHO cells
Kind of assay: Kv7.2/3 channels coexpressed in CHO cells, whole-cell patch-clamp. The format is cell-based. Particulars: for Activity: M-channel modulation, Kv7.2 and Kv7.3 subunits coexpressed in CHO cells; for EC50: read-out: EC50; for ΔV50 (mV): left-shift of the activation curve of Kv7.2/3 channels. On the procedure:
Chinese hamster ovary (CHO) cells were grown in Dulbecco's modified Eagle's medium (DMEM) supplemented with 2 mM glutamine, 10% fetal calf serum and antibiotics. Briefly, 40,000 cells seeded on poly-D-lysine-coated glass coverslips (13 mm diameter) in a 24-multiwell plate were transfected with pIRES-CD8 (0.5 μg) as a marker for transfection, and with Kv7.2 (0.5 μg) and Kv7.3 (0.5 μg) or TRPV1 […] or TRPV6 […].
For electrophysiology, transfected cells were visualized approximately 40 hours following transfection, using anti-CD8 antibody-coated beads. Transfection was performed using Fugene 6 (Roche, Indianapolis Ind., USA) according to the manufacturer's protocol.
as §1, with “Data were acquired using pClamp 9.2 software (Molecular Devices) and an IBM compatible Pentium IV computer in conjunction with a DigiData 1322A interface (Molecular Devices).” left out, “mOsm).” for “mOsm). Series resistances (3-13 MΩ) were compensated (75-90%) and periodically monitored.”
Data analysis was performed using the Clampfit program (pClamp 9.2, Molecular Devices), Microsoft Excel (Microsoft) and Prism 4.0 (GraphPad). Chord conductance (G) was calculated by using the following equation: G=I/(V−Vrev) where I corresponds to the current amplitude measured at the end of the pulse and Vrev, the calculated reversal potential. G was estimated at various test voltages V and then, normalized to a maximal conductance value, Gmax. Activation curves were fitted by one Boltzmann distribution: G/Gmax=1/{1+exp[(V50−V)/s]} where V50 is the voltage at which the current is half-activated and s is the slope factor. All data were expressed as mean±SEM. Statistically significant differences were assessed by Student's t-test. Analysis of sEPSCs and sIPSCs was done using the Clampfit program (pClamp 9.2, Molecular Devices) and included evaluation of the individual events as well as the average event amplitude and the integral of the event (total charge transfer).
In these studies, the impact of the compounds on M-channel activity was measured by the heterologous coexpression of Kv7.2 and Kv7.3 subunits in CHO cells.
(In general: Patch clamp records ionic current or voltage across a cell membrane.)

In assay [1] the test system is maximal electroshock seizure model (MES) in ICR mice. Kind of assay: Maximal electroshock seizure test (MES). Type of assay: in vivo. The settings on record: 30 minutes before electroshock, data not shown. On the procedure: The anti-convulsant effect was measured by the maximal electroshock seizure model (MES) in ICR mice as previously described. The procedures followed for experimentation and maintenance of the animals were approved by the animal research ethics committee of Tel Aviv University and in accordance with the Guide for the Care and Use of Laboratory Animals (1996, National Academy of Sciences, Washington D.C.). Briefly, maximal electroshock was induced in adult mice by means of two transcorneal electrodes delivering an alternative current of 50 mA at 60 Hz for 0.2 sec using rodent shocker (Hugo Sachs Electronik, type 221). […] The compounds, dissolved in 0.9% saline, were administered intraperitoneally 30 minutes before the electroshock was performed. Animals failing to show tonic hind limb extension were scored as protected and were expressed in percentage.

Where [2] appears, read: compounds whose Activity is Blocker.
Setting [3] is: opener potency, concentration-dependent left-shift in half-activation potential ΔV50, sigmoidal fit.

Entries after “also recorded” stand apart in the source; their conditions may differ. Where two headings read alike, the source gives them in different places.

T1 sequence (O43526 whole entry R207W): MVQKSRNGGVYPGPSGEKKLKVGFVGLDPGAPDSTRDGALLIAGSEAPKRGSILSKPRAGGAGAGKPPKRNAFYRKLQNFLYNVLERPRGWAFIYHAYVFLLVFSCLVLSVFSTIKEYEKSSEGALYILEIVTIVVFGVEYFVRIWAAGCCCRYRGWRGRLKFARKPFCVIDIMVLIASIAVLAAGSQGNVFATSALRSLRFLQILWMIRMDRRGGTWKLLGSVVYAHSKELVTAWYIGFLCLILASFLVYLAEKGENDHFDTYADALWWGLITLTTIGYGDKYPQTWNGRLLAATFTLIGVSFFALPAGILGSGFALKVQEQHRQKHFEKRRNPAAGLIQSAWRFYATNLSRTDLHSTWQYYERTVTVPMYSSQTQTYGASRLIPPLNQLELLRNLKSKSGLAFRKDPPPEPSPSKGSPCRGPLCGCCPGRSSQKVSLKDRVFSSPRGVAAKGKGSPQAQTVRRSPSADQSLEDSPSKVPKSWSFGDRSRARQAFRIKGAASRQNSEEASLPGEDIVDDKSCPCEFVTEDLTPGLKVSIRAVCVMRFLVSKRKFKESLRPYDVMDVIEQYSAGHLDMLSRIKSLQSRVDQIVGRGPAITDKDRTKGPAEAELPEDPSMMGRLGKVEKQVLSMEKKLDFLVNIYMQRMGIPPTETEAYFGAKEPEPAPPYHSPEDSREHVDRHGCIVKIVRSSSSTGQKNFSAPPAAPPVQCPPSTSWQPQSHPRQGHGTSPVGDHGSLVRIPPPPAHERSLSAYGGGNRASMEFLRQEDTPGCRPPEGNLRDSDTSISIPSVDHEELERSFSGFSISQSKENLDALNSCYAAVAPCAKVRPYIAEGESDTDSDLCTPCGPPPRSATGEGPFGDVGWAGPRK

For the molecule Zinc pyrithione [reference compound], the “activation of S4 mutant R207W” value on KCNQ2 mutant R207W was “activate very potently”.

The term EC50 denotes the concentration giving half of the maximal effect. As to `O=C(Cc1ccccc1Nc1c(Cl)cccc1Cl)OCC1CO1` (stereo not drawn) [NH21], at Kv7.2/3 channels, the Activity entry is “potent M-channel blockers; also recorded: Blocker”. Also, on Kv7.2/3 channels (setting [2]), the EC50 turned out to be 100 µM. As to `O=C(Cc1ccccc1Nc1c(Cl)cccc1Cl)OCCO` [NH7], at Kv7.2/3 channels, the Activity entry is “Opener” and the “ΔV50 (mV)” value was −4.1 mV.

As for `O=C(O)Cc1ccccc1Nc1c(Cl)cccc1Cl` [Diclofenac, reference compound], the Activity result at Kv7.2/3 channels is “Opener”. Besides, the EC50 at Kv7.2/3 channels (setting [3]) was determined as 2.6 µM. On to `O=C1NC(=O)C(c2ccccc2)(c2ccccc2)N1` [phenyloin], for which the “protection in MES” value in assay [1] (20 mg/kg intraperitoneal) is on record as “fully prevented hind limb extension”. For the molecule `CC(C)COC(=O)Cc1ccccc1Nc1c(Cl)cccc1Cl` [NH9], on Kv7.2/3 channels, the Activity entry is “potent M-channel blockers; also recorded: Blocker”. For the same molecule, on Kv7.2/3 channels (setting [2]), the EC50 was determined as 50 µM.

Consider `Cc1ccc(Cl)c(Nc2ccccc2C(=O)O)c1Cl` [Meclofenamic, Meclofenamic acid, reference compound], for which, at Kv7.2/3 channels, the Activity result was “Opener” and the “ΔV50 (mV)” value is −22.7 mV. Besides, the EC50 on Kv7.2/3 channels (setting [3]) is 25 µM.

Take `Cc1c(Cl)cccc1Nc1ccccc1C(=O)NCCOCCO` [NH18]: on Kv7.2/3 channels, the Activity entry is “Opener” and the “ΔV50 (mV)” value was −3.7 mV. Also, on Kv7.2/3 channels (setting [3]), the half-maximal effective concentration (EC50) stood at 6 µM.

For the molecule `O=C(Cc1cc([N+](=O)[O-])ccc1Nc1c(Cl)cc([N+](=O)[O-])cc1Cl)NCCO` [NH28], the Activity result at Kv7.2/3 channels is “Opener”.

As for `O=C(NCCOCCO)c1ccccc1Nc1cccc(C(F)(F)F)c1` [NH16], at Kv7.2/3 channels, the Activity entry is reported as “Opener” and the “ΔV50 (mV)” value is −5.5 mV. In addition, the half-maximal effective concentration (EC50) at Kv7.2/3 channels (setting [3]) is 9 µM.

Turning to `CN(CCO)C(=O)Cc1ccccc1Nc1c(Cl)cccc1Cl` [NH5], the Activity entry on Kv7.2/3 channels is on record as “Opener”. Still for that read-out and setting: the result for `O=C(O)c1ccccc1Nc1cccc(C(F)(F)F)c1` [flufenamate, reference compound] reads “potent M-channel openers”. In the case of `Cc1cccc(Nc2ccccc2C(=O)O)c1C` [mefenamate, reference compound], the Activity result at Kv7.2/3 channels is on record as “potent M-channel openers”. In the case of `O=C(Cc1ccccc1Nc1c(Cl)cccc1Cl)OCCOCCO` [NH6], at Kv7.2/3 channels, the Activity result was “Opener” and the “ΔV50 (mV)” value is reported as −18.7 mV. Moreover, on Kv7.2/3 channels (setting [3]), the EC50 came to 18 µM. `COc1ccc2cc([C@H](C)C(=O)O)ccc2c1` [naproxen, reference compound]: the Activity result at Kv7.2/3 channels is “do not activate Kv7.2/3 channels”. On to `CC(C(=O)O)c1cccc(Oc2ccccc2)c1` (stereo not drawn) [fenoprofen, reference compound], for which the Activity entry at Kv7.2/3 channels is given as “do not activate Kv7.2/3 channels”. Take `CC(C)COC(=O)c1ccccc1Nc1cccc(C(F)(F)F)c1` [NH11]: on Kv7.2/3 channels, the Activity entry was “totally inactive”.

For the molecule `O=C(Cc1ccccc1Nc1c(Cl)cccc1Cl)NCCO` [NH27], at Kv7.2/3 channels, the Activity entry was “Opener”. Same read-out and setting: for `COCCOCCOC(=O)Cc1ccccc1Nc1c(Cl)cccc1Cl` [NH13] the value was “totally inactive”; for `Cc1c(Cl)cccc1Nc1ccccc1C(=O)O` [tolfenamate, reference compound], “potent M-channel openers”. With `Cc1cccc(Nc2ccccc2C(=O)NCCOCCO)c1C` [NH15], on Kv7.2/3 channels, the Activity result is reported as “Opener” and the “ΔV50 (mV)” value is −8.4 mV. At Kv7.2/3 channels (setting [3]), the EC50 was 3 µM. Consider `O=C(O)Cc1cc([N+](=O)[O-])ccc1Nc1c(Cl)cccc1Cl` [NH24], for which, at Kv7.2/3 channels, the Activity result is listed as “Opener”.

Regarding `COCCOCCOCCOCCOC(=O)Cc1ccccc1Nc1c(Cl)cccc1Cl` [NH8], at Kv7.2/3 channels, the Activity result was “totally inactive”. Same read-out and setting: the result for `CC(C(=O)O)c1ccc(-c2ccccc2)c(F)c1` (stereo not drawn) [flurbiprofen, reference compound] reads “do not activate Kv7.2/3 channels”. The same measure, in the same setting: for `Cc1c(Cl)cccc1Nc1ccccc1C(=O)OCC(C)C` [NH10] the value was “totally inactive”. With `CCCC(CCC)C(=O)[O-].[Na+]` [sodium valproate], the “protection in MES” value in assay [1] (500 mg/kg intraperitoneal) is recorded as “fully prevented hind limb extension”. For `O=C(Cc1ccccc1Nc1c(Cl)cccc1Cl)NCCOCCO` [NH14], on Kv7.2/3 channels, the Activity result is on record as “Opener” and the “ΔV50 (mV)” value is on record as −12.6 mV.
